# Source: PubChem BioAssay AID857 (Vanderbilt High Throughput Screening Facility, 2007)
# The source made the active and inactive calls.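 How the source made its calls: active means a full or partial dose-response curve in at least two of three replicate runs; inactive means the rest.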
# Target: D(1B) dopamine receptor (Homo sapiens) (UniProt P21918)
# Assay: D5 receptor allosteric modulators, concentration-response – cell-based, HEK293, CRE-luciferase, luminescence, EC30 dopamine, selectivity assay for D1 allosteric modulator project, dose response (AID 857);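 further: HEK 293 cells expressing human D5 with a CRE-driven luciferase reporter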
# Chain of D(1B) dopamine receptor (Homo sapiens) (P21918 whole entry, looked up): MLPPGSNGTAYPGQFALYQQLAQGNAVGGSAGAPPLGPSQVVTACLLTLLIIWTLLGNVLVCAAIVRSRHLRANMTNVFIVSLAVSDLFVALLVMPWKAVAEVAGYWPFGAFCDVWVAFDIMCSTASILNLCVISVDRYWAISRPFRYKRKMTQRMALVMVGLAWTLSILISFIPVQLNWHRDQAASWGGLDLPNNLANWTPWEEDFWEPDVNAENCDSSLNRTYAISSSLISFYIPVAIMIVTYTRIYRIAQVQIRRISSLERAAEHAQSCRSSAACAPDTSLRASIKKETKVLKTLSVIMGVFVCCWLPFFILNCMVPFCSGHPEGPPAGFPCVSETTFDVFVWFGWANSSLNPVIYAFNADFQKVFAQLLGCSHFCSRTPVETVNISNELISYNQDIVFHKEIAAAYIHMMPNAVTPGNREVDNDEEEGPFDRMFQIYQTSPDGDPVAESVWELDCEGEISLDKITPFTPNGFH
Compound,outcome,EC50
CSc1nc2oc3c(c2c2nncn12)CC(C)(C)SC3,inactive,
CC1(C)CC(=O)C2=C(C1)OC(N)=C(C#N)C2c1cccc(OC(=O)c2ccco2)c1 (configuration not stated),inactive,
CCOc1ccccc1NC(=O)CN(C)S(=O)(=O)c1cccc2nsnc12,inactive,
CCOC(=O)c1[nH]cnc1C(=O)Nc1ccccn1,inactive,
O=C1OCCC1Sc1ncnc2sc3c(c12)CCC3 (configuration not stated),inactive,
CCCCCn1c(N)c(C#N)c2nc3ccccc3nc21,inactive,
COc1ccc(OC)c(/C=N/c2oc(-c3ccco3)c(-c3ccco3)c2C#N)c1,inactive,
CCOC(=O)Nc1sc(C(=O)N(CC)CC)c(C)c1C(=O)OCC,inactive,
Cn1cccc1C1NC(=O)c2c(sc3c2CCC(C(C)(C)C)C3)N1 (configuration not stated),inactive,
CCOC(=O)c1sc(NC(=O)CSc2nncs2)c(C(=O)OCC)c1C,inactive,
Cc1cc(NCCCn2ccnc2)n2c(nc3ccccc32)c1C#N,inactive,
N#Cc1c2c(nc(N)c1-c1ccccc1)CCCCC2,inactive,
Nc1nonc1-n1nnc(C(=O)c2ccccc2)c1-c1ccccc1,inactive,
C=CCn1c(=O)c2c(C)c(C)sc2n2c(Nc3ccc(OC)cc3)nnc12,inactive,
c1ccc(COc2nsnc2N2CCOCC2)cc1,inactive,
O=CN1Cc2[nH]c3ccccc3c2N(c2ccc(Cl)cc2)C1=O,inactive,
Cc1ccccc1NC(=O)c1nc[nH]c1C(=O)NCc1ccccc1,inactive,
c1ccc(-c2nn3c(-c4ccccc4)nnc3s2)cc1,inactive,
CCOC(=O)c1cc2c(=O)n3ccccc3nc2n(CCCOC)c1=NC(=O)C(C)(C)C,inactive,
Cc1[nH]nc2c1C(c1ccc(F)cc1)C1=C(CC(C)(C)CC1=O)N2 (configuration not stated),inactive,
CC1(C)CN=C(Nc2nc3ccccc3s2)S1,inactive,
COc1ccccc1CNC(=O)c1ccc(NS(=O)(=O)c2c(C)noc2C)cc1,inactive,
CCOC(=O)N1CCN(S(=O)(=O)c2ccc3c(c2)CCN3C(=O)C2CCC2)CC1,inactive,

Compound,outcome,EC50
Cn1c(=O)c2[nH]c(NCC3CCCO3)nc2n(-c2ccccc2)c1=O (configuration not stated),inactive,
CCN(CC)c1nc(N)c2c(N)nc3c(c2c1C#N)CC(c1ccccc1)O3 (configuration not stated),inactive,
O=S(=O)(Nc1cc(Cl)ccc1N1CCCCC1)c1cccs1,inactive,
Cc1nc(N2CCC(C(N)=O)CC2)c2nnn(Cc3ccccc3)c2n1,inactive,
O=C(NCc1ccco1)c1cnn2c(C(F)(F)F)cc(-c3ccco3)nc12,inactive,
Clc1ccccc1Cn1nnc2c(N3CCCC3)ncnc21,inactive,
NC(=O)c1oc2ccccc2c1NC(=O)c1ccc(F)cc1,inactive,
COc1ccc(S(=O)(=O)N2CCSC2c2ccc(OC)c(OC)c2)cc1 (configuration not stated),inactive,
N#CC1=C(N)Oc2nc(-c3ccccc3)[nH]c2C1c1cccnc1 (configuration not stated),inactive,
COC(=O)c1sc2ccccc2c1C(=O)OC,inactive,
CCCn1c(SCC(=O)Nc2sc(C)c(C)c2C(=O)OCC)nc2c1c(=O)n(C)c(=O)n2C,inactive,
C=CCSc1nc2ccccc2c(=O)[nH]1,inactive,
COc1ccc(OC)c(C2C=C(c3ccc(C)c(C)c3)Nc3nnnn32)c1 (configuration not stated),inactive,
C/C(CCc1oc2ccccc2c1-c1ccc(C)o1)=N/O,inactive,
NC(=O)c1cc(-c2ccccc2)nc(N2CCCCCC2)n1,inactive,
C=CCNc1sc(C(=O)C(C)(C)C)c(N)c1C#N,inactive,
CCN1C(=O)c2cccc3c(S(=O)(=O)Nc4ccccn4)ccc1c23,inactive,
COc1cccc(-c2nnc(SCC(=O)Nc3cc(C)on3)o2)c1,inactive,
COc1cccc(NC2=NCC(=O)N2Cc2cccs2)c1,inactive,
N#CC1=C(N)Oc2n[nH]c(-c3cccs3)c2C1c1ccsc1 (configuration not stated),inactive,
CCCCn1c(=NC(=O)c2cccnc2)c(C(=O)OCC)cc2c(=O)n3ccccc3nc21,,1070 nM
O=S(=O)(c1cccs1)N1CCN(c2ccccn2)CC1,inactive,
CC(C)OC(=O)CSc1nnc(-c2cnccn2)n1-c1ccccc1,inactive,

Compound,outcome,EC50
CC(C)C1C2=C(CC(C)(C)CC2=O)ON1c1ccccc1 (configuration not stated),inactive,
Cc1c(C(=O)OCC(C)C)[nH]c2c1C(=O)CC(c1ccco1)C2 (configuration not stated),,1750 nM
O=C1CSc2ccccc2N1Cc1ccccc1F,inactive,
CCCC(=O)Nc1ccc(NC(=O)C2CC2)cn1,inactive,
COc1ccc(-c2noc(CCC(N)=O)n2)cc1OC,inactive,
COc1ccccc1-c1nnc2n1N=C(C(C)(C)C)CS2,inactive,
Cc1cc2cc(CN(CCN3CCOCC3)C(=O)Nc3ccccc3F)c(=O)[nH]c2cc1C,inactive,
CCC(=O)N1CCc2cc(S(=O)(=O)NCCC(=O)NC3CCCc4ccccc43)ccc21 (configuration not stated),inactive,
CCc1nn(CCCC(=O)N2CCc3ccccc3C2)c(=O)c2cc3occc3n12,inactive,
CC(=O)Nc1nc2n(n1)C(c1ccccc1)C=C(c1ccccc1)N2 (configuration not stated),inactive,
COc1ccc(S(=O)(=O)N(C)c2ccc(C(=O)N3CCOCC3)cc2)cc1OC,inactive,
COC(=O)c1c(-c2ccc(F)cc2)csc1NC(=O)c1ccco1,inactive,
CCCc1nc2sc3ccccc3c(=O)c2c(=O)n1Cc1ccco1,inactive,
Cc1cc(Br)c2c(c1)=C(c1sc(N3CCCCCC3)nc1O)C(=O)N=2,,1030 nM
C/C(N)=C(/C#N)C(=O)CSc1nnc(SCc2ccc(Cl)cc2)s1,inactive,
COc1nc(NCc2ccc(Cl)cc2)nc(OC)n1,inactive,
NC(=O)c1c(NC(=O)CSc2nnc(-c3ccco3)n2-c2ccccc2)sc2c1CCC2,inactive,
O=S(=O)(c1ccccc1)c1nc(-c2ccco2)oc1N1CCCCCC1,inactive,
CCOC(=O)c1c(C)c(C(=O)NCc2ccc3c(c2)OCO3)c(C)n1C,inactive,
CCC(=O)n1nc(-c2ccco2)nc1N,inactive,
CC(=O)Oc1c(Cl)c(N2CCOCC2)c(OC(C)=O)c2ccccc12,inactive,
COc1ccccc1NC(=O)CC1Nc2ccccc2NC1=O (configuration not stated),inactive,
Cc1cc(N2CCN(S(=O)(=O)c3ccc4c(c3)OCCO4)CC2)n2ncnc2n1,inactive,

Compound,outcome,EC50
Cn1c(=O)c2c(nc(SCCCO)n2Cc2ccccc2Cl)n(C)c1=O,inactive,
COc1ccc(NC(=O)c2ccc(NS(=O)(=O)c3c(C)noc3C)cc2)cc1OC,inactive,
Cc1sc2ncnc(SCC(=O)N3CCCC3)c2c1C,inactive,
CC1=CC(C)(C)N=C(NC#N)N1,inactive,
Cc1cc(SCC(=O)N2CCC(c3noc4ccc(F)cc34)CC2)nc2ccccc12,inactive,
CCn1c(SCc2cccnc2)nc2c1c(=O)n(C)c(=O)n2C,inactive,
COc1ccc(Cl)cc1C(=O)CSc1nnnn1C1CCCC1,,661 nM
Cc1ccc(Cn2c(-n3nc(C)cc3C)nc3c2c(=O)[nH]c(=O)n3C)cc1,inactive,
O=c1cc(-c2ccccc2)c2c([nH]1)CCCC2,inactive,
CCOC(=O)C1=C(C)Nc2nc(SC)nn2C1c1ccc(C(=O)OC)cc1 (configuration not stated),inactive,
Cc1ccc(S(=O)(=O)N2CCN(C(=O)COC(=O)c3cc(C)oc3C)CC2)cc1,inactive,
COC(=O)c1ccccc1NC(=O)COc1ccc(S(=O)(=O)N2CCCC2)cc1C,inactive,
Cc1cc(C)nc(SCC(=O)Nc2ncc3c(n2)CC(C)(C)CC3=O)n1,inactive,
CCOC(=O)c1nn(-c2ccccc2C)c(=O)c(C#N)c1C,inactive,
COc1ccccc1NC(=O)N(Cc1ccc2c(c1)OCO2)Cc1nc2ccccc2c(=O)[nH]1,inactive,
CCOC(=O)NCCc1ccc(OC)cc1,inactive,
CCOC(=O)c1cnn(-c2cccc(Cl)c2)c1N,inactive,
Cc1ccc(Oc2ccccc2)c(NC=O)c1,inactive,
Cc1ccc(C2C(C#N)=C(N)Oc3n[nH]c(-c4cccs4)c32)s1 (configuration not stated),inactive,
N#CC1=C(N)n2c(s/c(=C\c3ccco3)c2=O)=C(C#N)C1c1ccco1 (configuration not stated),inactive,
CCC(C)Nc1nc(OC)nc(N(C)C#N)n1 (configuration not stated),inactive,
OCCNc1ncnc2c1c(-c1ccccc1)c(-c1ccccc1)n2Cc1ccco1,inactive,
COc1ccc(Cc2nnc(NC(=O)c3c(-c4ccccc4)noc3C)s2)cc1,inactive,

Compound,outcome,EC50
COC(=O)c1ccc(OCCn2cnc3ccccc3c2=O)cc1,inactive,
Clc1cccc(Nc2c3c(nc4ncnn24)CCC3)c1,inactive,
CCOC(=O)c1cc2c(=O)n3ccccc3nc2n(CCCOC)c1=NC(=O)c1cccnc1,inactive,
CSc1nc2c(c(=O)n1-c1ccccc1)SCC2,inactive,
CCCOc1ccccc1NC(=O)c1ccc(N)cc1,inactive,
COC(=O)c1ccc(COc2nc(C)cc(C)c2C#N)o1,inactive,
COc1ncnc2c1N=C1CC(C)(C)CC(N)=C1S2,inactive,
O=C(CCSc1nc2ccccc2o1)N1CCOCC1,inactive,
CCOC(=O)c1c(NC(=O)c2cccs2)sc(C)c1CC,inactive,
Cc1nn2c(N3CCCC3)cc(C(C)C)nc2c1-c1ccccc1,inactive,
N#Cc1nc(N)nc(N(c2ccccc2)c2ccccc2)n1,inactive,
NC(=O)NC(=O)Nc1ccccc1Cl,inactive,
CCCCCn1c(NCc2ccco2)nc2ccccc21,inactive,
N#CCSc1nc2c(sc(=S)n2Cc2ccco2)c(=O)n1-c1ccc(F)cc1,inactive,
N#CCSc1ncnc2sc3c(c12)CCC3,inactive,
COc1ccc2nc(SCC(=O)N3CCCCCC3)c(C#N)cc2c1,inactive,
CCOC(=O)c1nn(-c2ccc(OC)cc2)c(=O)c2c(N)scc12,inactive,
CCOC(=O)N1CCN(C(=O)C(C)(C)Oc2ccc(Cl)cc2)CC1,inactive,
Fc1ccc(NC2=NCCS2)cc1Cl,inactive,
N#Cc1cn(-c2ccccc2)nc1-c1ccccc1,inactive,
